Tests used:
Details in all cases: banded MIC grade
[1] = test system: Aspergillus fumigatus; assay: Minimum inhibitory concentration, YAG medium; assay type: cell-based
Summary of the method: (§1)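 MICs (mg/L) reflect >70% inhibition of OD485 growth versus untreated control after 24 hrs at 35° C in YAG medium, spore inoculum 1-2×10^4 cfu/mL, drug range 50-0.05 mg/L.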

[2] = test system: A. fumigatus 210; assay: Minimum inhibitory concentration, YAG medium; assay type: cell-based, Aspergillus fumigatus
Summary of the method: as §1

[3] = test system: A. terreus 49; assay: Minimum inhibitory concentration, YAG medium; assay type: cell-based, Aspergillus terreus
Summary of the method: (§2)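 Compound from a 5 mg/mL DMSO stock was further diluted in sterile water, then serially doubled in water and plated with Aspergillus spp. spores. After 24 hrs at 35° C, growth was monitored by optical density at 485 nm; MICs are given in mg/L.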

[4] = test system: Aspergillus flavus; assay: Minimum inhibitory concentration, YAG medium; assay type: cell-based
Summary of the method: as §2

[5] = test system: Aspergillus niger; assay: Minimum inhibitory concentration, YAG medium; assay type: cell-based
Summary of the method: as §2

[6] = test system: Aspergillus terreus; assay: Minimum inhibitory concentration, YAG medium; assay type: cell-based
Summary of the method: as §2

[7] = test system: A. flavus; assay: Minimum inhibitory concentration, RPMI medium; assay type: cell-based
Summary of the method: (§3)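 Compound stock was made at 5 mg/mL in DMSO, diluted in sterile water and serially doubled in water, then tested in RPMI 1640 medium. Plates were incubated 24-48 hrs at 35° C, and growth was scored as optical density at 485 nm.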

[8] = test system: A. niger; assay: Minimum inhibitory concentration, RPMI medium; assay type: cell-based
Summary of the method: as §3

[9] = test system: A. terreus 49; assay: Minimum inhibitory concentration, RPMI medium; assay type: cell-based
Summary of the method: as §3

[10] = test system: A. terreus; assay: Minimum inhibitory concentration, RPMI medium; assay type: cell-based
Summary of the method: as §3

[11] = test system: C. albicans; assay: Minimum inhibitory concentration, RPMI medium; assay type: cell-based
Summary of the method: as §3

[12] = test system: C. glabrata; assay: Minimum inhibitory concentration, RPMI medium; assay type: cell-based
Summary of the method: as §3

[13] = test system: C. krusei; assay: Minimum inhibitory concentration, RPMI medium; assay type: cell-based
Summary of the method: as §3

[14] = test system: C. parapsilosis; assay: Minimum inhibitory concentration, RPMI medium; assay type: cell-based
Summary of the method: as §3

[15] = test system: C. tropicalis; assay: Minimum inhibitory concentration, RPMI medium; assay type: cell-based
Summary of the method: as §3

[16] = test system: A. fumigatus 210; assay: Minimum inhibitory concentration, RPMI medium; assay type: cell-based
Experimental: (§4) Between 1 and 5 mgs of compound were accurately weighed out into a sterile Eppendorf tube. The compound was dissolved in DMSO to give a solution containing 5 mg/mL. Tubes were stored at −20° C. until required.
(§5) On the day of testing thawed solutions were vortex mixed to ensure homogeneity. 30 μL of solution was removed and added to 570 μL of sterile water in a separate sterile Eppendorf. The thoroughly mixed solution was used to prepare a series of doubling dilutions in water, in a deep well plate. Thirteen replicate plates were prepared using a Minitrak by aspirating 20 μL from each well into eleven clear polystyrene 96 well plates.
(§6) Assays were also performed in RPMI medium (Roswell Park Memorial Media 1640). To perform MIC tests in this medium, dilutions of compounds are prepared in microtitre plates as described above. Fungal strains to be tested are grown and harvested in an identical manner to that described above, and each organism suspension was diluted in RPMI medium, typically containing 2% glucose and 0.135 M MOPS buffer (pH 7.0) to 0.5-2×10^4cfu/mL, rather than in YAG medium. 80 μL of an organism suspension was added to each well of the plate containing drug dilutions.
(§7) This produced MIC plates with a drug range 50-0.05 mg/L and organism inocula of 1-2×10^4 cfu/mL. All plates were incubated for 24-48 hrs at 35° C. Growth was assessed by monitoring the optical density at 485 nm for each well. The MIC of a compound is the lowest drug concentration that inhibits growth of an organism by >80% compared with a drug free control. The following organisms were tested: C. albicans, C. parapsilosis, C. tropicalis, C. glabrata, C. krusei, A. niger, A. fumigatus, A. terreus, A. flavus, A. terreus 49, and A. fumigatus 210.

[17] = test system: A. fumigatus; assay: Minimum inhibitory concentration, RPMI medium; assay type: cell-based
Experimental: as §4, §5, §6, §7

Structure (SMILES) | MIC grade, A. FUMIGATUS, YAG media [1] | MIC grade, A. FUMIGATUS 210, YAG media [2] | MIC grade, A. TERREUS 49, YAG media [3] | MIC grade, A. FLAVUS, YAG media [4] | MIC grade, A. NIGER, YAG media [5] | MIC grade, A. TERREUS, YAG media [6] | MIC grade, A. FLAVUS, RPMI media [7] | MIC grade, A. NIGER, RPMI media [8] | MIC grade, A. TERREUS 49, RPMI media [9] | MIC grade, A. TERREUS, RPMI media [10] | MIC grade, C. ALBICANS, RPMI media [11] | MIC grade, C. GLABRATA, RPMI media [12] | MIC grade, C. KRUSEI, RPMI media [13] | MIC grade, C. PARAPSILOSIS, RPMI media [14] | MIC grade, C. TROPICALIS, RPMI media [15] | MIC grade, A. FUMIGATUS 210, RPMI media [16] | MIC grade, A. FUMIGATUS, RPMI media [17]
NC1=NN=C(CCCCOCc2ccccc2C(F)(F)F)CS1 | 3 (3: 0.2-1 mg/L) | 2 (2: 1-5 mg/L) | 2 (2: 1-5 mg/L) | 2 (2: 1-5 mg/L) | 3 (3: 0.2-1 mg/L) | 2 (2: 1-5 mg/L) | 1 (1: ≥20 mg/L) | 1 (1: ≥20 mg/L) | 1 (1: ≥20 mg/L) | 1 (1: ≥20 mg/L) | 2 (2: 5-20 mg/L) | 1 (1: ≥20 mg/L) | 2 (2: 5-20 mg/L) | 1 (1: ≥20 mg/L) | 2 (2: 5-20 mg/L) | 1 (1: ≥20 mg/L) | 1 (1: ≥20 mg/L)
NC1=NN=C(CCCCOCc2c(F)cccc2Cl)CS1 | 3 (3: 0.2-1 mg/L) | 3 (3: 0.2-1 mg/L) | 3 (3: 0.2-1 mg/L) | 3 (3: 0.2-1 mg/L) | 3 (3: 0.2-1 mg/L) | 3 (3: 0.2-1 mg/L) | 2 (2: 5-20 mg/L) | 2 (2: 5-20 mg/L) | 2 (2: 5-20 mg/L) | 2 (2: 5-20 mg/L) | 2 (2: 5-20 mg/L) | 2 (2: 5-20 mg/L) | 3 (3: 1-5 mg/L) | 2 (2: 5-20 mg/L) | 2 (2: 5-20 mg/L) | 1 (1: ≥20 mg/L) | 2 (2: 5-20 mg/L)
NC1=NN=C(CCCCOCc2ccccc2C2CC2)CS1 | 2 (2: 1-5 mg/L) | 2 (2: 1-5 mg/L) | 2 (2: 1-5 mg/L) | 3 (3: 0.2-1 mg/L) | 2 (2: 1-5 mg/L) | 2 (2: 1-5 mg/L) | 1 (1: ≥20 mg/L) | 1 (1: ≥20 mg/L) | 2 (2: 5-20 mg/L) | 2 (2: 5-20 mg/L) | 3 (3: 1-5 mg/L) | 2 (2: 5-20 mg/L) | 2 (2: 5-20 mg/L) | 3 (3: 1-5 mg/L) | 3 (3: 1-5 mg/L) | 1 (1: ≥20 mg/L) | 2 (2: 5-20 mg/L)
NC1=NN=C(CCCCOCc2cc(F)ccc2F)CS1 | 4 (4: <0.2 mg/L) | 4 (4: <0.2 mg/L) | 4 (4: <0.2 mg/L) | 4 (4: <0.2 mg/L) | 4 (4: <0.2 mg/L) | 4 (4: <0.2 mg/L) | 2 (2: 5-20 mg/L) | 2 (2: 5-20 mg/L) | 2 (2: 5-20 mg/L) | 2 (2: 5-20 mg/L) | 3 (3: 1-5 mg/L) | 2 (2: 5-20 mg/L) | 3 (3: 1-5 mg/L) | 3 (3: 1-5 mg/L) | 3 (3: 1-5 mg/L) | 2 (2: 5-20 mg/L) | 2 (2: 5-20 mg/L)
CCCCc1cccc(COCCCCC2=NN=C(N)SC2)c1 | 1 (1: ≥5 mg/L) | 1 (1: ≥5 mg/L) | 2 (2: 1-5 mg/L) | 3 (3: 0.2-1 mg/L) | 3 (3: 0.2-1 mg/L) | 2 (2: 1-5 mg/L) | 2 (2: 5-20 mg/L) | 2 (2: 5-20 mg/L) | 2 (2: 5-20 mg/L) | 2 (2: 5-20 mg/L) | 2 (2: 5-20 mg/L) | 1 (1: ≥20 mg/L) | 2 (2: 5-20 mg/L) | 2 (2: 5-20 mg/L) | 2 (2: 5-20 mg/L) | 1 (1: ≥20 mg/L) | 2 (2: 5-20 mg/L)
NC1=NN=C(CCCCOCc2ccc(Br)cc2)CS1 | 4 (4: <0.2 mg/L) | 4 (4: <0.2 mg/L) | 4 (4: <0.2 mg/L) | 4 (4: <0.2 mg/L) | 4 (4: <0.2 mg/L) | 4 (4: <0.2 mg/L) | 4 (4: <1 mg/L) | 3 (3: 1-5 mg/L) | 3 (3: 1-5 mg/L) | 4 (4: <1 mg/L) | 4 (4: <1 mg/L) | 4 (4: <1 mg/L) | 4 (4: <1 mg/L) | 4 (4: <1 mg/L) | 4 (4: <1 mg/L) | 2 (2: 5-20 mg/L) | 2 (2: 5-20 mg/L)
NC1=NN=C(CCCCOCc2ccc(Cl)cc2F)CS1 | 4 (4: <0.2 mg/L) | 4 (4: <0.2 mg/L) | 4 (4: <0.2 mg/L) | 4 (4: <0.2 mg/L) | 3 (3: 0.2-1 mg/L) | 4 (4: <0.2 mg/L) | 4 (4: <1 mg/L) | 3 (3: 1-5 mg/L) | 3 (3: 1-5 mg/L) | 3 (3: 1-5 mg/L) | 4 (4: <1 mg/L) | 3 (3: 1-5 mg/L) | 4 (4: <1 mg/L) | 4 (4: <1 mg/L) | 4 (4: <1 mg/L) | 2 (2: 5-20 mg/L) | 2 (2: 5-20 mg/L)
NC1=NN=C(CCCCSCc2ccc(Cl)cc2)CS1 | 3 (3: 0.2-1 mg/L) | 3 (3: 0.2-1 mg/L) | 4 (4: <0.2 mg/L) | 4 (4: <0.2 mg/L) | 4 (4: <0.2 mg/L) | 4 (4: <0.2 mg/L) | 3 (3: 1-5 mg/L) | 3 (3: 1-5 mg/L) | 2 (2: 5-20 mg/L) | 2 (2: 5-20 mg/L) | 3 (3: 1-5 mg/L) | 2 (2: 5-20 mg/L) | 3 (3: 1-5 mg/L) | 3 (3: 1-5 mg/L) | 3 (3: 1-5 mg/L) | 2 (2: 5-20 mg/L) | 2 (2: 5-20 mg/L)

Source: patent US20180201592A1, “2-AMINO-1,3,4-THIADIAZINE AND 2-AMINO-1,3,4-OXADIAZINE BASED ANTIFUNGAL AGENTS” (F2G Limited, priority 2015, published 2018)
